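Dose response: 5 concentrations. Exposure: 48 h. Format: 96-well plates. Endpoint: linear interpolation; highest concentration if not reached. GI50 is the concentration that inhibits growth by half.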 Activity calls are given as the source filed them. No stated cut-off is given here; in the data, active = GI50 up to about 1.1 µM and inactive = higher.
What was measured:
Experiment in all cases: NCI anticancer screen, dose series, 48 h
T47D = system: T47D
OVCAR-3 = system: OVCAR-3
RXF 393 = system: RXF 393
SNB-19 = system: SNB-19
SK-MEL-5 = system: SK-MEL-5
SK-MEL-28 = system: SK-MEL-28
SK-MEL-2 = system: SK-MEL-2
HOP-92 = system: HOP-92
MOLT-4 = system: MOLT-4
Malme-3M = system: Malme-3M
NCI-H23 = system: NCI-H23
BT-549 = system: BT-549
A549 = system: A549
NCI-H226 = system: NCI-H226
786-0 = system: 786-0
HCT-116 = system: HCT-116
CAKI-1 = system: CAKI-1
SF-539 = system: SF-539
MDA-N = system: MDA-N
HCC 2998 = system: HCC 2998

| Structure (SMILES) | GI50 (T47D) | GI50 (OVCAR-3) | GI50 (RXF 393) | GI50 (SNB-19) | GI50 (SK-MEL-5) | GI50 (SK-MEL-28) | GI50 (SK-MEL-2) | GI50 (HOP-92) | GI50 (MOLT-4) | GI50 (Malme-3M) | GI50 (NCI-H23) | GI50 (BT-549) | GI50 (A549) | GI50 (NCI-H226) | GI50 (786-0) | GI50 (HCT-116) | GI50 (CAKI-1) | GI50 (SF-539) | GI50 (MDA-N) | GI50 (HCC 2998) |
| --- | --- | --- | --- | --- | --- | --- | --- | --- | --- | --- | --- | --- | --- | --- | --- | --- | --- | --- | --- | --- |
| CC(C)(C)OC(=O)N(CCNS(=O)(=O)c1cccc2cnccc12)CCC(=O)ON1C(=O)CCC1=O | > 100 µM (inactive) | > 100 µM (inactive) | > 100 µM (inactive) | > 100 µM (inactive) | > 100 µM (inactive) | > 100 µM (inactive) | > 100 µM (inactive) | 10.4 µM (inactive) | > 100 µM (inactive) | > 100 µM (inactive) | > 100 µM (inactive) | > 100 µM (inactive) | > 100 µM (inactive) | > 100 µM (inactive) | > 100 µM (inactive) | > 100 µM (inactive) | – | – | – | – |
| COc1ccc2c(c1)[n+]([O-])c1cc(C#N)ccc1[n+]2[O-] | 11.7 µM (inactive) | 5.83 µM (inactive) | 47.2 µM (inactive) | 7.87 µM (inactive) | 0.893 µM (active) | 12.9 µM (inactive) | 4.27 µM (inactive) | 6.56 µM (inactive) | 0.316 µM (active) | 2.58 µM (inactive) | 0.849 µM (active) | 10.2 µM (inactive) | 0.378 µM (active) | 3.78 µM (inactive) | 13.6 µM (inactive) | 11.1 µM (inactive) | 4.09 µM (inactive) | 3.41 µM (inactive) | – | – |
| O=C(Nc1nnc(-c2ccccc2)o1)C(SC(=S)N1CCCCC1)c1ccccc1 (stereo unspecified) | 31.2 µM (inactive) | 17.3 µM (inactive) | 26.3 µM (inactive) | 32.1 µM (inactive) | 13.6 µM (inactive) | 24.1 µM (inactive) | 17.7 µM (inactive) | – | 3.53 µM (inactive) | 26.2 µM (inactive) | 12.4 µM (inactive) | 14 µM (inactive) | 17.1 µM (inactive) | 25.4 µM (inactive) | 16.7 µM (inactive) | 13.4 µM (inactive) | 18.9 µM (inactive) | 28.1 µM (inactive) | 20.7 µM (inactive) | – |
| CCOC(=O)c1csc(C(CSCc2ccc(OC)cc2)N2C(=O)c3ccccc3C2=O)n1 (stereo unspecified) | 69.2 µM (inactive) | > 100 µM (inactive) | > 100 µM (inactive) | > 100 µM (inactive) | > 100 µM (inactive) | > 100 µM (inactive) | – | > 100 µM (inactive) | 31.5 µM (inactive) | > 100 µM (inactive) | > 100 µM (inactive) | > 100 µM (inactive) | > 100 µM (inactive) | > 100 µM (inactive) | 88.1 µM (inactive) | 49.1 µM (inactive) | > 100 µM (inactive) | > 100 µM (inactive) | – | > 100 µM (inactive) |
| CC[N+]1(C)CCC(O)(c2ccc(C)cc2)C(C(=O)c2ccc(C)cc2)C1 (stereo unspecified) | – | 21.7 µM (inactive) | 35.4 µM (inactive) | > 100 µM (inactive) | > 100 µM (inactive) | – | > 100 µM (inactive) | 23 µM (inactive) | 23.6 µM (inactive) | 26.1 µM (inactive) | > 100 µM (inactive) | > 100 µM (inactive) | > 100 µM (inactive) | > 100 µM (inactive) | 20.1 µM (inactive) | 51.8 µM (inactive) | 23.9 µM (inactive) | 66.8 µM (inactive) | > 100 µM (inactive) | > 100 µM (inactive) |
| CSC1=C(C(=O)Nc2ccccc2)C(N)=NC1=O | 92.7 µM (inactive) | – | 79.3 µM (inactive) | > 100 µM (inactive) | > 100 µM (inactive) | > 100 µM (inactive) | > 100 µM (inactive) | – | > 100 µM (inactive) | > 100 µM (inactive) | > 100 µM (inactive) | > 100 µM (inactive) | > 100 µM (inactive) | > 100 µM (inactive) | > 100 µM (inactive) | > 100 µM (inactive) | 27.5 µM (inactive) | > 100 µM (inactive) | > 100 µM (inactive) | > 100 µM (inactive) |
| C#CC1(OC(C)=O)CCC2C3CC=C4C=C(OC(C)=O)CCC4(C)C3CCC21C (stereo unspecified) | 61.5 µM (inactive) | 20 µM (inactive) | – | 32.4 µM (inactive) | 18.3 µM (inactive) | 25.9 µM (inactive) | 19.7 µM (inactive) | 16.1 µM (inactive) | 13.2 µM (inactive) | 18 µM (inactive) | 18.3 µM (inactive) | 31.8 µM (inactive) | 31.6 µM (inactive) | 24.8 µM (inactive) | 30.3 µM (inactive) | 16.2 µM (inactive) | 36.5 µM (inactive) | 21.3 µM (inactive) | – | 16 µM (inactive) |
| N#CC(NCCc1ccccc1)c1ccc(C(C#N)NCCc2ccccc2)cc1 (stereo unspecified) | > 100 µM (inactive) | > 100 µM (inactive) | > 100 µM (inactive) | 61.2 µM (inactive) | 32.1 µM (inactive) | 48.5 µM (inactive) | > 100 µM (inactive) | > 100 µM (inactive) | 32.6 µM (inactive) | > 100 µM (inactive) | 30.7 µM (inactive) | 20.5 µM (inactive) | > 100 µM (inactive) | > 100 µM (inactive) | 72.4 µM (inactive) | 28.8 µM (inactive) | > 100 µM (inactive) | > 100 µM (inactive) | – | 83.9 µM (inactive) |
| OC1(c2ccccc2)CC2CCC(C1)N2CCCC(O)(c1ccccc1)c1ccccc1 (stereo unspecified) | 21.3 µM (inactive) | 16.4 µM (inactive) | 11.9 µM (inactive) | 20.7 µM (inactive) | 3.2 µM (inactive) | 17.7 µM (inactive) | 20.3 µM (inactive) | 5.62 µM (inactive) | 7.45 µM (inactive) | 15.9 µM (inactive) | 11.9 µM (inactive) | 13 µM (inactive) | 17.1 µM (inactive) | 12.4 µM (inactive) | 12.5 µM (inactive) | 14.6 µM (inactive) | 14 µM (inactive) | 4.54 µM (inactive) | – | 2.14 µM (inactive) |
| O=C(Nc1nc(C23CC4CC(CC(C4)C2)C3)cs1)c1cc2c(ccc3ccccc32)oc1=O | – | > 100 µM (inactive) | – | > 100 µM (inactive) | > 100 µM (inactive) | > 100 µM (inactive) | – | > 100 µM (inactive) | > 100 µM (inactive) | > 100 µM (inactive) | > 100 µM (inactive) | > 100 µM (inactive) | > 100 µM (inactive) | > 100 µM (inactive) | > 100 µM (inactive) | > 100 µM (inactive) | > 100 µM (inactive) | > 100 µM (inactive) | > 100 µM (inactive) | > 100 µM (inactive) |
| Fc1ccc(-c2sc(-c3cccs3)cc2Cc2cccs2)cc1 | > 100 µM (inactive) | > 100 µM (inactive) | 50.6 µM (inactive) | > 100 µM (inactive) | > 100 µM (inactive) | > 100 µM (inactive) | > 100 µM (inactive) | > 100 µM (inactive) | 31.1 µM (inactive) | > 100 µM (inactive) | > 100 µM (inactive) | > 100 µM (inactive) | > 100 µM (inactive) | > 100 µM (inactive) | > 100 µM (inactive) | > 100 µM (inactive) | > 100 µM (inactive) | > 100 µM (inactive) | – | > 100 µM (inactive) |
| C=CCn1c(=O)c2ccccc2[n+]2c(C)c(C(=O)OCC)sc12 | > 100 µM (inactive) | > 100 µM (inactive) | > 100 µM (inactive) | > 100 µM (inactive) | > 100 µM (inactive) | > 100 µM (inactive) | > 100 µM (inactive) | – | > 100 µM (inactive) | – | > 100 µM (inactive) | > 100 µM (inactive) | > 100 µM (inactive) | > 100 µM (inactive) | > 100 µM (inactive) | > 100 µM (inactive) | > 100 µM (inactive) | > 100 µM (inactive) | > 100 µM (inactive) | > 100 µM (inactive) |
| CC(OC(C)(C)C)[C@H](NC(=O)OCc1ccccc1)C(=O)NC(OCc1ccccc1)[C@H]1COC(C)(C)O1 (stereo partly specified) | – | > 10 µM (inactive) | 21.8 µM (inactive) | > 10 µM (inactive) | > 10 µM (inactive) | > 100 µM (inactive) | > 10 µM (inactive) | > 10 µM (inactive) | > 10 µM (inactive) | > 10 µM (inactive) | > 10 µM (inactive) | > 10 µM (inactive) | 39.3 µM (inactive) | > 10 µM (inactive) | > 10 µM (inactive) | 50.7 µM (inactive) | > 10 µM (inactive) | > 10 µM (inactive) | > 10 µM (inactive) | > 10 µM (inactive) |
| COC(=O)/C=C(/OC)[C@H](C)[C@H](/C=C/c1csc(-c2csc(C(C)C)n2)n1)OC | 1.4 µM (inactive) | 0.35 µM (active) | 1.35 µM (inactive) | – | < 0.0177 µM (active) | 63.5 µM (inactive) | 28 µM (inactive) | 6.07 µM (inactive) | 0.0703 µM (active) | 18.8 µM (inactive) | 0.569 µM (active) | 4.8 µM (inactive) | 0.136 µM (active) | 4.19 µM (inactive) | 7.45 µM (inactive) | 0.284 µM (active) | 7.08 µM (inactive) | 8.79 µM (inactive) | – | – |
| C=C(Cl)C(C)(Cl)CCC(Cl)C(C)(C)Cl (stereo unspecified) | – | 46 µM (inactive) | 35.1 µM (inactive) | > 100 µM (inactive) | 50.5 µM (inactive) | > 100 µM (inactive) | 27.2 µM (inactive) | 25.9 µM (inactive) | 23.9 µM (inactive) | 38.2 µM (inactive) | 83.2 µM (inactive) | > 100 µM (inactive) | 44.8 µM (inactive) | 42.3 µM (inactive) | > 100 µM (inactive) | 35.1 µM (inactive) | > 100 µM (inactive) | > 100 µM (inactive) | 44.2 µM (inactive) | > 100 µM (inactive) |

Reference: ChEMBL document CHEMBL1201862, “PubChem BioAssay data set” (2004)
